Twelve compounds from EP0199985A2, “Benzoic-acid derivatives, pharmaceutical preparations comprising them and process for preparing these compounds and pharmaceutical preparations” (Grünenthal GmbH, priority 1985, dated 1986) can be followed below.

Molecules are shown by their SMILES.

In this test the target is T1, 5-Lipoxygenase (Rattus norvegicus, UniProt P12527).
T1 construct: basophile leukämische Leukozyten der Ratte in-vitro gezüchtet; endogenous in cells; whole cells suspended in phosphate buffer, stimulated with A 23187
T1 sequence (P12527 1-673): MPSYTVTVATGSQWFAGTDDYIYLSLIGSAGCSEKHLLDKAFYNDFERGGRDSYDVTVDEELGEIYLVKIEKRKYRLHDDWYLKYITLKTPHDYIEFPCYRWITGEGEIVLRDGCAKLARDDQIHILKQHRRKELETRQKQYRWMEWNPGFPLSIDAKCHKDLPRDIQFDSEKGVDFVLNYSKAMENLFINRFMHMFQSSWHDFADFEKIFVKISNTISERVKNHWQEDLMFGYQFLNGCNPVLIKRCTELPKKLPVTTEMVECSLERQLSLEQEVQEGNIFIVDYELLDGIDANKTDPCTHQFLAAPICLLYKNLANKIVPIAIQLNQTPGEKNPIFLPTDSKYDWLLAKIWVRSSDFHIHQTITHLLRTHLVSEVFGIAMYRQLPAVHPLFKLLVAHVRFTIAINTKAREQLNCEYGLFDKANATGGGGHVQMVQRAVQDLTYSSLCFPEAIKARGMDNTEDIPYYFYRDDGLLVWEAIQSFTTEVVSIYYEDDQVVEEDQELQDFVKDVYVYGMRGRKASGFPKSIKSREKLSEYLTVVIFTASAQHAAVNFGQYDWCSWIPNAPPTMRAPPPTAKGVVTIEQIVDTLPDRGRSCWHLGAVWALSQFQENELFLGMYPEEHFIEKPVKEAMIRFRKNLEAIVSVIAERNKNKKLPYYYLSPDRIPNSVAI
As to the kind of experiment: 5-lipoxygenase inhibition in cultured rat basophilic leukemic leukocytes (radiolabelled arachidonic acid, TLC of 5-HETE and LTB4). The class given is cell-based, Ratte. The following applies: rat basophilic leukemic leukocytes in 50 mM potassium phosphate buffer pH 7.4; indomethacin 10 µM, CaCl2 2 mM, labelled arachidonic acid + ionophore A 23 187, 5 min, room temperature; formation of 5-HETE and LTB4. As for the experimental part:
Zur Ermittlung der 5-Lipoxygenasehemmung wurden basophile leukämische Leukozyten der Ratte in-vitro gezüchtet und nach Erreichen einer Zelldichte von ca. 10^6 Zellen pro ml bei 400 g vom Nährmedium abzentrifugiert. Der Rückstand wurde in 50 mM Kaliumphosphatpuffer vom pH 7,4 so suspendiert, daß die Zellzahl […] Zellen pro ml betrug.
Jeweils 1 ml dieser Suspension wurde mit Indomethacin (10 uM) und Calciumchlorid (2 mM) versetzt und in An-oder Abwesenheit einer der Testsubstanzen mit radioaktiv markierter Arachi- 5 donsäure und dem Calcium-lonophor A 23 187 bei Raumtemperatur für 5 Minuten inkubiert. Nach Ansäuern auf pH 5 wurden die unter dem Einfluß der 5-Lipoxygenase gebildeten Arachidonsäuremetaboliten mit Ethylacetat extrahiert und 10 mit einem für die Leukotriene geeigneten Fließmittelgemisch dünnschichtchromatographisch getrennt [vgl. Jakschik et al. Biochem. Biophys. Res. Commun. 102, 624 (1981)]. Die Radioaktivitätsverteilung auf die verschiedenen Metaboliten 15 wurde mit Hilfe eines Dünnschichtscanners gemessen. Setzt man die prozentualen Bildungsanteile der 5-Lipoxygenaseprodukte (5-HETE und LTB4) zu der Menge bzw. Konzentration der eingesetzten Gesamtradioaktivität bzw. der Testsubstanz 20 der Formel I in Relation, so läßt sich der IC50-Wert-(d. h. die Konzentration, die eine 50 %-ige Hemmung der 5-Lipoxygenase bewirkt) ermitteln.
In general, IC50 refers to the midpoint of a concentration-inhibition curve. In the case of `CN(O)C(=O)c1ccc(C#CCCCCCCC#CCO)cc1` [Beispiel 11, 4-(11'-Hydroxy-undeca-1',9'-diin-1'-yl)-N-methylbenzhydroxamsäure], the IC50 was found to be 200 nM.

Consider `CCCN(CCC)C(=O)c1cccc(C#CCCCCCCC#CCO)c1` [Beispiel 24g, 3-(11'-Hydroxy-undeca-1',9'-diin-1'-yl)-benzoesäure-[N,N-di-(n-propyl)]-amid], for which the IC50 was found to be 2400 nM.

`CC(=O)ON(C)C(=O)c1cccc(C#CCCCCCCC#CCO)c1` [Beispiel 24l, 3-(11'-Hydroxy-undeca-1',9'-diin-1'-yl)-benzoesäure-(N-methyl-N-acetoxy)-amid]: the IC50 amounted to 500 nM.

As for `CCCCCC(O)/C=C/C=C\C/C=C\C/C=C\c1ccc(C(=O)OC)cc1` (stereo not drawn) [Beispiel 7, 4-(11'-Hydroxy-hexadeca-1'Z,4'Z,7'Z,9'E-tetraen-1'-yl)-benzoesäuremethylester], the 50% inhibitory concentration (IC50) came to 1000 nM.

Consider `CN(O)C(=O)c1cccc(C#CCCCCCCC#CCO)c1` [Beispiel 16], for which the IC50 stood at 1000 nM.

`CC(C)N(C(=O)c1cccc(C#CCCCCCCC#CCO)c1)C(C)C` [Beispiel 24n, 3-(11'-Hydroxy-undeca-1',9'-diin-1'-yl)-benzoesäure-[N,N-di-(isopropyl)]-amid]: the IC50 stood at 1600 nM.

Consider `O=C(c1cccc(C#CCCCCCCC#CCO)c1)N1CCCCC1` [Beispiel 17, 3-(11 '-Hydroxy-undeca-1',9'-diin-1'-yl)-benzoesäurepiperidid], for which the IC50 came out at 2300 nM.

Take `CCCCCC(O)/C=C/C#CCC#CCC#Cc1cccc(C(=O)OC)c1` (stereo not drawn) [Beispiel 1, 3-(11'-Hydroxy-hexadec-9'E-en-1',4',7'-triin-1'-yl)-benzoesäuremethylester]: the IC50 is 1700 nM.

For the compound `COC(=O)c1cccc(C#CCC#CCC#C/C=C/C(O)C2CCCCC2)c1` (stereo not drawn) [Beispiel 4, 3-(11'-Cyclohexyl-11'-hydroxy-undec-9'E-en-1',4',7-triin-1'-yl)-benzoesäuremethylester], the IC50 turned out to be 1400 nM.

Consider `CCOC(=O)c1cccc(C#CCCCCCCC#CCO)c1` [Beispiel 18, 3-(11 '-Hydroxy-undeca-1',9'-diin-1-yl)-benzoesäureethylester], for which the IC50 turned out to be 7500 nM.

On to `CCCCCNC(=O)c1cccc(C#CCCCCCCC#CCOC(C)=O)c1` [Beispiel 27a, 3-(11 '-Acetoxy-undeca-1',9'-diin-1'-yl)-benzoesäure-n-pentylamid], for which the IC50 was 7000 nM.

For `CN(O)C(=O)c1cccc(C#CCCCCCCC#CC(O)C2CCCCC2)c1` (stereo not drawn) [Beispiel 23biii, 3-(11'-Cyclohexyl-11'-hydroxy-undeca-1',9'-diin-1'-yl)-N-methylbenzhydroxamsäure], the IC50 worked out at 500 nM.
